According to BindingDB's records for doi:10.1021/jm801583j (Bristol-Myers Squibb, 2009):

Molecular target: T1, Androgen receptor (Homo sapiens, UniProt P10275)
T1 sequence (P10275 whole entry): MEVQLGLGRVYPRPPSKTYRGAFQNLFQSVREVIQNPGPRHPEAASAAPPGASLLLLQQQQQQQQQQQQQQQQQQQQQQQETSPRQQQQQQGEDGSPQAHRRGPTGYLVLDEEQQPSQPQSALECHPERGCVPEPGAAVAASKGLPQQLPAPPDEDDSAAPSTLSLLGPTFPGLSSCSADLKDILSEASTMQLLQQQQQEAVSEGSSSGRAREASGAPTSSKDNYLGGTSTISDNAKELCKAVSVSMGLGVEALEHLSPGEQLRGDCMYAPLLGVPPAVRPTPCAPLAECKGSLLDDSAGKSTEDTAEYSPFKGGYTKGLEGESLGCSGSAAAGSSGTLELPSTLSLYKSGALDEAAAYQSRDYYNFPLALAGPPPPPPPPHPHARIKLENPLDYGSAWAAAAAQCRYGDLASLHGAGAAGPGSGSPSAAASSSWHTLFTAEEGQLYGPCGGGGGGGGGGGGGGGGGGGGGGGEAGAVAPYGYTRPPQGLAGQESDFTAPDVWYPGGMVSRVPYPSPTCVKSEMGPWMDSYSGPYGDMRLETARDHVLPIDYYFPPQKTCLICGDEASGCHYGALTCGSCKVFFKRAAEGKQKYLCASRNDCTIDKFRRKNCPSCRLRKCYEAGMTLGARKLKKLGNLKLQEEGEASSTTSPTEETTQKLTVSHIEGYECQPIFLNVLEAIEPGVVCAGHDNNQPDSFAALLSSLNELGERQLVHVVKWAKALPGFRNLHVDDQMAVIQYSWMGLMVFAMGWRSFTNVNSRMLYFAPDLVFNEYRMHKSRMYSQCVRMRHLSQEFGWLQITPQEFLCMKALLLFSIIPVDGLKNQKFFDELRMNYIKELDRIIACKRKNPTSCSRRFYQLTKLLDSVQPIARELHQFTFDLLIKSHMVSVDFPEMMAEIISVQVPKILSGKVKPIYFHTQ
Assay: Receptor Binding Assay (Ki) and Transactivation Assay (EC50)
Conditions: pH 7.6; 22 °C
Description: Binding assays were conducted by incubating test compound at various concentrations with [3H]DHT with human cancer epithelial breast cell lines MDAMB-45. IC50 value was obtained from dose-response displacement curves. The inhibition constant (Ki) was calculated from IC50 value by the Cheng and Prusoff equation. EC50 value was obtained from functional transactivation assay, which was conducted to assess the potency and efficacy of agonist/antagonist in stably transfected mouse myoblast C2C12 cell line utilizing a luciferase reporter.

Row | Structure (SMILES) | EC50 [nM] | Ki [nM]
1 | Cc1c(N2/C(=N/C#N)N3CC[C@H](O)[C@H]3[C@@H]2C)ccc(C#N)c1Cl [cyanoguanidine, 15] | 1110 | 17
2 | Cc1c(/N=C2\O[C@H](C(C)C)[C@@H]3[C@H](O)CCN23)ccc(C#N)c1Cl [oxazolidin-2-imine, 6g] | 3.7 | 0.7
